Measurements taken from patent US20230241226A1, “COMPOUNDS FOR TARGETED DEGRADATION OF CARRIER PROTEINS AND USES THEREOF” (CeMM - Forschungszentrum für Molekulare Medizin GmbH, priority 2019, published 2023).

Legend:
[1] = biological target: T1, dTAG-HA SLC33A1 (Homo sapiens, UniProt O00400+Q96SW2); assay: Targeted degradation of dTAG-tagged SLC33A1 (western blot); format: cell-based; settings: HAP1, 0.5 µM
T1 construct: expressed in transfected cells
Method: (§1) (C)HAP1 cells expressing dTAG-HA SLC1A5, 2A3, 30A9, 35B2, MTCH2, and 33A1 were treated for 24 hours with 0.5 µM of dTAG7 or dTAG13, as indicated. HAP1 cells expressing dTAG-HA SLC2A1 and 16A1 were treated for 24 hrs with 0.5 µM of dTAG7. HAP1 cell lines expressing dTAG-HA SLC39A7, dTAG-HA SLC4A4, and SLC7A3-dTAG-HA were treated for 48 hrs with 0.5 µM of dTAG13.
(§2) SLC1A5, SLC2A1, SLC2A3, SLC16A1, SLC38A1, SLC38A2 were obtained as gateway-compatible pENTR/pDONR vectors from the Harvard PlasmID Repository. SLC39A7 was obtained from Dharmacon, GE Healthcare. The following vectors were synthesized by Genescript: SLC4A4, SLC7A3, SLC38A9, SLC25A1, SLC9A1, SLC9A2, SLC9A3, SLC9A4, SLC9A5, SLC9A6, SLC9A7, SLC9A8, and SLC9B2. […]
(§3) For immunoblotting, whole cell extracts were prepared using RIPA lysis buffer (25 mM Tris/HCl pH 7.6, 150 mM NaCl, 1% NP-40, 1% sodium deoxycholate, 0.1% SDS, EDTA-free protease inhibitor (Roche) and phosphatase inhibitors 2+3 (Sigma- Aldrich)). […] Protein extracts were quantified and normalized using the BCA assay (Thermo Scientific). […]
(§4) SLCs were ectopically expressed as fusions to a mutated FKBP domain, also known as the dTAG system. […]

[2] = biological target: T2, dTAG-HA SLC39A7 (Homo sapiens, UniProt Q92504+Q96SW2); assay: Targeted degradation of dTAG-tagged SLC39A7 (western blot); format: cell-based; settings: HAP1, 0.5 µM, 24, 48 or 72 hours
T2 construct: expressed in transfected cells
Method: as §1, §2, §3, §4

[3] = biological target: T3, Strep/HA SLC9A4 (Homo sapiens, UniProt Q6AI14); assay: Selectivity across SLC9 family: degradation of exogenous Strep/HA SLC9A4; format: cell-based; settings: HAP1; 250 or 750 nM; 16 hours
T3 construct: expressed in transfected cells; host or cells: HAP1 (lentiviral, pRRL Strep-HA; cDNA synthesized by Genescript)
Method: (§5) (E) Selectivity of d9A1-2 was tested across HAP1 cell lines expressing Strep/HASLC9A1, 9A4, 9A5, 9A8, 9A2, 9B2, 9A6, 9A9, and 9A3. Cells were treated with varying concentrations of d9A1-2 for 16 hours, after which degradation of the exogenous SLCs was monitored.
(§6) SLC1A5, SLC2A1, SLC2A3, SLC16A1, SLC38A1, SLC38A2 were obtained as gateway-compatible pENTR/pDONR vectors from the Harvard PlasmID Repository. SLC39A7 was obtained from Dharmacon, GE Healthcare. The following vectors were synthesized by Genescript: SLC4A4, SLC7A3, SLC38A9, SLC25A1, SLC9A1, SLC9A2, SLC9A3, SLC9A4, SLC9A5, SLC9A6, SLC9A7, SLC9A8, and SLC9B2. SLC30A9, SLC33A1, SLC35B2, SLC25A26, and MTCH2 were a gift from the RESOLUTE consortium. cDNAs were transferred into gateway-compatible lentiviral expression vectors: pLX305 dTAG vectors (Addgene #91797/8) or pRRL Strep-HA (described previously43, EF1a promotor driven expression) using LR recombination (ThermoFisher Scientific). […]
as §3

[4] = biological target: T4, Strep/HA SLC9B2 (Homo sapiens, UniProt Q86UD5); assay: Selectivity across SLC9 family: degradation of exogenous Strep/HA SLC9B2; format: cell-based; settings: HAP1; 250 or 750 nM; 16 hours
T4 construct: expressed in transfected cells; host or cells: HAP1 (lentiviral, pRRL Strep-HA; cDNA synthesized by Genescript)
Method: as §5, §6, §3

[5] = system: Peripheral blood mononuclear cells (PBMCs); assay: Cellular viability assay (CellTiter-Glo), dose curve, FIG. 9; format: cell-based, human; settings: PBMCs of healthy donors and patients (AML, multiple myeloma, B cell lymphoma, Hodgkin's lymphoma, CLL), 72 hours
Method: Relative viability of Peripheral blood mononuclear cells (PBMCs) after treatment with the d9A1-2 molecule PBMCs were isolated from healthy donors and patients with acute myeloid leukemia, multiple myeloma, B cell lymphoma and Hodgkin’s lymphoma, chronic lymphocytic leukeumia and treated with a dose curve of d9A1-2. Viability was assayed using the CellTiter-Glo assay, 72 hours post treatment.
Peripheral blood mononuclear cells (PBMCs) were isolated using Lymphoprep (Stem Cell Technologies) from healthy donors and patients with acute myeloid leukemia, multiple myeloma, B cell lymphoma, Hodgkin’s lymphoma, chronic lymphocytic leukeumia. For comparison of different samples, compounds were transferred on black 384-well plates using an acoustic liquid handler (Echo, Labcyte). Cells were seeded in these plates at densities of 20,000 cells per well in RPMI media (Gibco), supplemented with 10% fetal calf serum (Gibco). Viability was measured after 72 hours using the CellTiter-Glo assay (Promega) on a plate reader (SpectraMax i3x, Molecular Probes). All measurements were done in technical quadruplicates. Toxicity achieved by treatment with d9A1-2 was normalized to the reference controls. Dose response fitting curves were obtained and plotted using GraphPad Prism V8. Data is presented as mean +/- SD.

T2 sequence (Q92504 with tags, fused parts or gaps): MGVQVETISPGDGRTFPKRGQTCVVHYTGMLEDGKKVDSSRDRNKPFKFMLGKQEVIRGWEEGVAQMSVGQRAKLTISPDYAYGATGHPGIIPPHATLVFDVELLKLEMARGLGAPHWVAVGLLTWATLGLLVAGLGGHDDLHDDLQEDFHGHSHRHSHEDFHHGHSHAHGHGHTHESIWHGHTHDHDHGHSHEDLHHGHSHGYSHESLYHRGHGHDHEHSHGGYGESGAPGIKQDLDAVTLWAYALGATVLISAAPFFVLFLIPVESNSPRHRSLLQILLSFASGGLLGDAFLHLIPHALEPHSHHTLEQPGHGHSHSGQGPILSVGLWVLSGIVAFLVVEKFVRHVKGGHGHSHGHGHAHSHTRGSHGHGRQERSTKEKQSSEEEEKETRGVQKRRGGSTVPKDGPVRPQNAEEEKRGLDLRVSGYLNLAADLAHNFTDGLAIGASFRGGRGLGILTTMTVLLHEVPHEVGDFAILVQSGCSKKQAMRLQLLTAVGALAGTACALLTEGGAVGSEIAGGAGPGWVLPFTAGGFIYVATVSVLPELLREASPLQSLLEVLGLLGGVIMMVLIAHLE
T2 sequence (Q96SW2 whole entry): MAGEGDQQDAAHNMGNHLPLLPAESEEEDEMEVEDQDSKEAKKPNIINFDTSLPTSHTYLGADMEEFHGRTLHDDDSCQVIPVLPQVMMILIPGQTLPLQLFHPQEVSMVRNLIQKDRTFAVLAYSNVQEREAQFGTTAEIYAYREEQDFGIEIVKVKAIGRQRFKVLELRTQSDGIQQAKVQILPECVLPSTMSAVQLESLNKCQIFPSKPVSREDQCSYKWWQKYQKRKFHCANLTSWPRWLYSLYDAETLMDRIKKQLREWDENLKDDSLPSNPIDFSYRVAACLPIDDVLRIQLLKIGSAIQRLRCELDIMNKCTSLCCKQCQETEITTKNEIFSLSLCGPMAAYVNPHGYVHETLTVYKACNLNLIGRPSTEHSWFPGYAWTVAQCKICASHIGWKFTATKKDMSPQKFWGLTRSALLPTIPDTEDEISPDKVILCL
T2 sequence (Q16531 whole entry partner): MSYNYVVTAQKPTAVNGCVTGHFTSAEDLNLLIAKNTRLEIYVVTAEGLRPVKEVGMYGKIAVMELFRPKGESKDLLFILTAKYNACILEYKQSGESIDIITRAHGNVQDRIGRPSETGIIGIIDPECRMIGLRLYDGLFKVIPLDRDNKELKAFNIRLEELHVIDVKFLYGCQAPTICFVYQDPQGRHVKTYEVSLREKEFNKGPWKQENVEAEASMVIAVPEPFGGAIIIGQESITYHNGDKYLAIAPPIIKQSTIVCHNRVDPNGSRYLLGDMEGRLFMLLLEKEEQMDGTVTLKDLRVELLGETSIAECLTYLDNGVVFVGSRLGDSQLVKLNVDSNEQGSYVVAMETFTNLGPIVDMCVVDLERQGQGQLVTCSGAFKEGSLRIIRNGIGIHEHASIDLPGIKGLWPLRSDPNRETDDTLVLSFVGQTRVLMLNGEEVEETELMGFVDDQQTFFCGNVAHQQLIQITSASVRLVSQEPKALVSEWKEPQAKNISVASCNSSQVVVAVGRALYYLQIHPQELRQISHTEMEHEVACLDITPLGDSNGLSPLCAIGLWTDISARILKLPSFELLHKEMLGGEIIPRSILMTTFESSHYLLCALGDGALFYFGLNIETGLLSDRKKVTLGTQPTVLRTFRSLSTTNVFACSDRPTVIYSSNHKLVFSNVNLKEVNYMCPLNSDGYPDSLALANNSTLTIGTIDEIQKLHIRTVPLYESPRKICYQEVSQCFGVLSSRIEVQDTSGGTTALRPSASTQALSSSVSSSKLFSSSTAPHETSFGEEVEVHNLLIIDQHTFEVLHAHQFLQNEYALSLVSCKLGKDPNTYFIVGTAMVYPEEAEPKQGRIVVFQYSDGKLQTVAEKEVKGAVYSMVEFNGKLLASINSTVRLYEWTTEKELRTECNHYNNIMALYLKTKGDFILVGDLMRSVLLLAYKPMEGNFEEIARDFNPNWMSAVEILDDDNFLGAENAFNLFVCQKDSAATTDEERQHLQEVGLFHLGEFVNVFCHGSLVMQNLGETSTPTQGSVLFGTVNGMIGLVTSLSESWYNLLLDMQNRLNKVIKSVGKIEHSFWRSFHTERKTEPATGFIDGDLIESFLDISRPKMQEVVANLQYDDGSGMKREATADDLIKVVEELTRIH
T3 sequence (Q6AI14 whole entry): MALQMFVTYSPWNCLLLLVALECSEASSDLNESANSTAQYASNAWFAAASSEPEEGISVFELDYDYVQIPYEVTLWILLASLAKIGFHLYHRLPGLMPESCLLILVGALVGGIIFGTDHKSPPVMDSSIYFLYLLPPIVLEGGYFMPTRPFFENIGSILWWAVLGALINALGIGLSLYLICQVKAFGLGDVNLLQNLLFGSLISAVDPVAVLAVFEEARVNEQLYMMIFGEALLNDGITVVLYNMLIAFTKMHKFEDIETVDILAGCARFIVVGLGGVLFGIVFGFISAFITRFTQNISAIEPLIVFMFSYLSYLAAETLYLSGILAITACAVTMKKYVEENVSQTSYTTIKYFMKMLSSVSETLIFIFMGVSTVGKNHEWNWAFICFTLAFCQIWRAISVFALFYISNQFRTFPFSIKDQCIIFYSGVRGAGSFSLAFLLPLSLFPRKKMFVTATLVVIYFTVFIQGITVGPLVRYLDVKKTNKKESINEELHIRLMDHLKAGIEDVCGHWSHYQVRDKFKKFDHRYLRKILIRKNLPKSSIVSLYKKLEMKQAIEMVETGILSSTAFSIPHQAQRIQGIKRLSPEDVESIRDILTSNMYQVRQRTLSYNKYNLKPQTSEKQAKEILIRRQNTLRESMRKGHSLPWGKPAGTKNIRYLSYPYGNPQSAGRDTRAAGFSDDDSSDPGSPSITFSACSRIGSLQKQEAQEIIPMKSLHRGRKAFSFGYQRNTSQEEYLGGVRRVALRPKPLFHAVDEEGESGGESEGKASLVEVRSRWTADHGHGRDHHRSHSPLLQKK
T1 sequence (O00400 with tags, fused parts or gaps): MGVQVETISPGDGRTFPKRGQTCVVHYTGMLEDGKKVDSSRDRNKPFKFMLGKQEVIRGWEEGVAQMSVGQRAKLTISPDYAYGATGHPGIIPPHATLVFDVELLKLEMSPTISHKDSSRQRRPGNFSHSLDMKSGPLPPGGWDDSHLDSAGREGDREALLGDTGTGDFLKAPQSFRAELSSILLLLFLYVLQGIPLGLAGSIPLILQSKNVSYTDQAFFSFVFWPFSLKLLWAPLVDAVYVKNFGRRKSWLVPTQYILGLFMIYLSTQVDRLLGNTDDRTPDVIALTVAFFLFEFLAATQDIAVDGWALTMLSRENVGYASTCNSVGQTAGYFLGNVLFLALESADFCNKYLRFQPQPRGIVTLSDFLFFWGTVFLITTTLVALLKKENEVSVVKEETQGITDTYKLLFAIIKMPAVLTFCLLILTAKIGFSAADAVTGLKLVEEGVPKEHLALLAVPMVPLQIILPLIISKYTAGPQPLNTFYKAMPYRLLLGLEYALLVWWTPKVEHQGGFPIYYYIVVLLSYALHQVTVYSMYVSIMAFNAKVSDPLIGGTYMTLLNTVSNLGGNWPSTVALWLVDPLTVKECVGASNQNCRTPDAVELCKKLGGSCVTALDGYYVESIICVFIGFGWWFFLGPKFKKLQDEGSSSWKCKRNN
T1 sequence (Q96SW2 whole entry): as the sequence (Q96SW2 whole entry) above
T1 sequence (Q16531 whole entry partner): as the sequence (Q16531 whole entry partner) above
T4 sequence (Q86UD5 whole entry): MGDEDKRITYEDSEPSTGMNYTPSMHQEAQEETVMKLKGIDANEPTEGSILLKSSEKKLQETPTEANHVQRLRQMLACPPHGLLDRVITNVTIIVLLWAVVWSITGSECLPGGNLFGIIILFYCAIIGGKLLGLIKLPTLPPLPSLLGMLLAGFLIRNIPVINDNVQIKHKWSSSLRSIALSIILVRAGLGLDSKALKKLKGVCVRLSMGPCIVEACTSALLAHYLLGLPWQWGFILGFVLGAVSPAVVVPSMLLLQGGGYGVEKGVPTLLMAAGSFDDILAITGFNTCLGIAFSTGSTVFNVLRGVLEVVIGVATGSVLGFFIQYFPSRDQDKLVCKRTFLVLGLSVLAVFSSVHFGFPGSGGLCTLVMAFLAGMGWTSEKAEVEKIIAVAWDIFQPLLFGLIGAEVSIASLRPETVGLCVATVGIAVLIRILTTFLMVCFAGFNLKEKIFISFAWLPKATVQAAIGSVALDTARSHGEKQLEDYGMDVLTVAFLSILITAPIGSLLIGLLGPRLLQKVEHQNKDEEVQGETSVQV

SMILES: CC[C@H](C(=O)N1CCCC[C@H]1C(=O)O[C@H](CCc1ccc(OC)c(OC)c1)c1ccccc1OCC(=O)NCCCOCCOCCOCCCNC(=O)COc1cccc2c1C(=O)N(C1CCC(=O)NC1=O)C2=O)c1cc(OC)c(OC)c(OC)c1 (some centres unmarked) [dTAG7]
- initiation of degradation (time course) [1]: ≤ 6 h
- reversibility of degradation of the target SLC [2]: reversible degradation

SMILES: Cc1cc(-c2ccc(C(=O)NCCOCCOCCOCCOCCNc3cccc4c3C(=O)N(C3CCC(=O)NC3=O)C4=O)cc2N2CCC(c3[nH]cnc3C)CC2)ccc1F (centres unmarked) [d9A1-2]
- degradation of exogenous SLC9A4 [3]: prompted degradation
- abundance of exogenous SLC9B2 [4]: not significantly affected
- toxicity (relative viability) in patient versus healthy donor PBMCs [5]: more toxic in patient samples, than in healthy donor samples
